Experimental data taken from patent US20240018592A1, “METHODS OF ASSESSING THE THERAPEUTIC ACTIVITY OF AGENTS FOR THE TREATMENT OF IMMUNE DISORDERS” (Technion Research & Development Foundation Limited, priority 2020, published 2024).

What was measured:
Type in all cases: in vivo, human
[1] = Infliximab drug levels and anti-drug antibodies (ADA) after first treatment; conditions: drug level, mean ± SEM, levels >20 taken as 20
Experimental: (§1) Sample collection: The cohort consisted of 24 Crohn's disease (CD) patients who received Infliximab anti-TNF treatment at the gastroenterology department of the Rambam Health Care Campus (RHCC) and met the study inclusion criteria as follows: 1) Adequately documented active luminal CD, as phenotyped by a gastroenterologist with expertise in IBD; 2) Documented decision to initiate full infliximab induction regimen with 5 mg/kg induction dosing (i.e. at weeks 0, 2, 6). Patients that had past exposure to Infliximab, Adalimumab or Vedolizumab, or patients who had active infection including febrile diseases or intra-abdominal or perianal abscess were excluded.
(§2) Patient samples were obtained at three time points: at baseline, before infliximab treatment, and two and fourteen weeks post first treatment and assayed for gene expression microarray data.

[2] = system: immune age (IMM-AGE) score of peripheral blood; experiment: Immune-age score from whole blood gene expression (Affymetrix Clariom S, single-sample GSEA) before and after infliximab
From the text: as §2
Blood transcriptome processing and analysis: Whole blood was preserved in PAXgene Blood RNA tubes (PreAnalytiX). RNA was extracted and assayed using Affymetrix Clariom S chips (Thermo Fisher Scientific). The raw gene array data were processed to obtain a log 2 expression value for each gene probe set using the RMA (robust multichip average) method available in the affy R package. Probe set annotation was performed using affycoretools and clariomshumantranscriptcluster.db packages in R. Data were further adjusted for batch effect using empirical Bayes framework applied by the Combat R package.
Using a high-resolution longitudinal gene expression dataset from peripheral blood samples of 24 CD patients, 15 and 9 responding and non-responding patients, at three time points: pretreatment, 2 and 14 weeks post first treatment, the present inventors evaluated the samples' immune-age score reflecting the samples' position along the high dimensional IMM-AGE trajectory. To quantify the immune age of the CD patients, they used normalized gene expression measurements of the following genes: ABLIM1, AFF3, BACH2, BCL11A, BIRC3, BLNK, BTLA, C11orf31, C6orf48, CCR6, CCR7, CD200, CD22, CD27, CD28, CDCA7L, CHMP7, CR2, DPP4, E2F5, EPHX2, FAIM3, FAM102A, FAM134, FCRL1, FCRL2. HOOK1, HVCN1, IL6ST, IMPDH2, KIAA0748, LEF1, LRRN3, MYC, NELL2, NT5E, P2RX5, PAQR8, PLAG1, PTPRK, RCAN3, SCML1, SLC7A6, SNX9, STRBP, SUSD3, TCF4, TCF7, TCL1A, TCTN1, UXT, VPREB3, ZNF101, ZNF671, CRTC3, STAP1 and HLA-DOB.
The immune-age of the CD patients was estimated by using single-sample GSEA algorithm (Barbie D A et al. Nature 462, 108-112 (2009)). An external IBD (CD and UC) disease specific molecular response axis was used to describe the patients' dynamics by generating a PCA on differential gene expression between active and in-active disease states treated with variety of treatment regimens (using public data, GSE94648).

[3] = system: Crohn's disease (CD) patients; experiment: Infliximab induction treatment of Crohn's disease patients: clinical and laboratory outcome (CRP, albumin, HBI, clinical response, response classification); conditions: for HBI 14 w post first treatment: Harvey-Bradshaw Index; for HBI 14 w post first treatment / Albumin 2 w post first treatment / Albumin 14 w post first treatment / CRP 2 w post first treatment / CRP 14 w post first treatment: mean ± SEM
Experimental: as §1, §2
Patient response classification was defined by decision algorithm, as described previously (Gaujoux et al. 2018). Briefly, patients were classified as responders based on clinical remission, which was defined as cessation of diarrhea and abdominal cramping or, in the cases of patients with fistulas, cessation of fistula drainage and complete closure of all draining fistulas at week 14, coupled with a decision of the treating physician to continue IFX therapy at the current dosing and schedule. Patients that were defined as partial responders, classification was determined by the decision algorithm that included the following hierarchical rules: 1) steroid dependency at week fourteen; 2) biomarker dynamics (Calprotectin and CRP) and 3) response according to clinical state at week 26.
Applying the decision algorithm and exclusion criteria, yielded a final study cohort of 15 and 9 responding and non-responding patients, respectively.

[4] = of 24 CD patients, classified by decision algorithm at week 14

## Infliximab [IFX]
[1]; IFX non-responders (n = 9)
  IFX 2 w post first treatment: 8.9 ± 1.9 ng/µL
  IFX 14 w post first treatment: 0.9 ± 0.3 ng/µL
[1]; IFX responders (n = 15)
  IFX 2 w post first treatment: 10.7 ± 1.8 ng/µL
  IFX 14 w post first treatment: 3.3 ± 0.5 ng/µL
[2]; cohort of 24 CD patients treated with anti-TNF (Infliximab)
  shift of patients' immune age: dramatically shift patients' immune age
[2]; responders versus non-responders, post treatment relative to baseline
  immune age dynamics in responders: shifted back their immune age and presented a significant drop
[2]; responders, 2 weeks post treatment
  immune age score in responders, early: significant reduced immune age score
[3]; IFX non-responders (n = 9)
  HBI 14 w post first treatment: 5 ± 2.2
  Albumin 2 w post first treatment: 3.3 ± 0.3
  Albumin 14 w post first treatment: 3.1 ± 0.2
  CRP 2 w post first treatment: 8.8 ± 3.2
  CRP 14 w post first treatment: 28.0 ± 13.6
[3]; IFX responders (n = 15)
  HBI 14 w post first treatment: 0.8 ± 0.3
  Albumin 2 w post first treatment: 3.7 ± 0.1
  Albumin 14 w post first treatment: 4.0 ± 0.1
  CRP 14 w post first treatment: 5.1 ± 1.8
[3]; IFX responders (n = 15), 5 mg/kg induction
  CRP 2 w post first treatment: 2.7 ± 0.7
[3]; [4]
  non-responding patients: 9 patients
  responding patients: 15 patients
